Data on 42 compounds can be found in ChEMBL document CHEMBL1134457, “Medicinal chemistry of neuronal voltage-gated sodium channel blockers” (J Med Chem, 2001).

For series [1], the system named is Rattus norvegicus. Description: In vivo anticonvulsant activity to prevent seizures from maximum electroshock (MES) […]. Type of series: functional.
The species entered for series [2] is Rattus norvegicus. Description: Neuroprotective activity was determined in the rat middle cerebral artery occlusion (MCAO) model of focal stroke. Type of series: functional. The conditions noted are these: read-out: MED.
Series [3] in a line: Inhibition of veratridine-induced guanidine flux in cardiac voltage-gated sodium channel (veratridine block vs. Na release). It counts as functional, tissue-based, Rattus norvegicus, Heart.
Series [4] is described as follows: Inhibition of [3H]BTX binding to cardiac voltage-gated sodium channel. Further details: species or system Rattus norvegicus.
A short description of series [5]: Potency against voltage-gated calcium channel [45[Ca2+]]. Type of series: functional.
Series [6] addresses GABA-A receptor; anion channel. Description: Anticonvulsant activity against gamma-aminobutyric acid receptor. Type of series: functional.
Series [7] is described as follows: In vivo toxic dose in rotarod assay. It counts as ADME, organism-based. The conditions noted are these: rat. Background: In the rotarod test animals must keep their balance on a rotating rod.
In series [8] the test system is Gerbillinae. Description: Neuroprotective activity was determined in the rat middle cerebral artery occlusion (MCAO) model of focal stroke in gerbil. It counts as functional. Conditions: read-out: MED.
A short description of series [9]: Effective dose was determined after intraperitoneal administration in the MES model. Type of series: functional. The conditions noted are these: Rattus norvegicus, ip.
Series [10] is described as follows: Inhibition of [3H]-BTX binding to cardiac voltage-gated sodium channel. It counts as functional, Rattus norvegicus.
Series [11] concerns Rattus norvegicus. Description: In vivo anticonvulsant activity to prevent seizures from maximum electroshock (MES) […] after (i.v.) administration. It counts as functional. The conditions noted are these: iv.
The species entered for series [12] is Rattus norvegicus. Description: Minimum effective dose (MED) was determined in the rat middle cerebral artery occlusion (MCAO) model of focal stroke […]. Type of series: functional. The conditions noted are these: read-out: MED.
Series [13] is filed under the species Rattus norvegicus. Description: Neuroprotective activity was determined in the rat middle cerebral artery occlusion (MCAO) model of focal stroke using rotarod assay. It counts as functional. The conditions noted are these: read-out: MED.
The species entered for series [14] is Rattus norvegicus. Description: Minimum effective dose was determined in the rat middle cerebral artery occlusion (MCAO) model of focal stroke […]. It counts as functional. Conditions: read-out: MED.

Where only a bound is given, the exact number is not on record here.

Turning to `NC(=O)C12NC(Cc3ccccc31)c1ccccc12` (stereo unspecified), the 50% effect level in series [1] (ED50) was put at a dose of 8.9 mg/kg.

Turning to `OC(COc1ccccc1)CN1CCC(c2ccc(Oc3ccccc3)cc2)CC1` (stereo unspecified), in series [2], the minimal effective dose was 3 mg/kg. For the same compound, the IC50 – broadly, the concentration at which inhibition is half-maximal – in series [3] was determined as 0.22 µM.

Regarding `CC1CCCC(C)N1CCCNC(=O)C(c1ccccc1)c1ccccc1` (stereo unspecified), the IC50 in series [4] is 0.046 µM; in series [3] it was 5 µM.

In the case of `NC(=O)NNCc1ccc(Oc2ccc(F)cc2)cc1`, it took a dose of 4.2 mg/kg to reach the 50% effect level in [1] (ED50).

As for `CCC(C)c1ccc(N2CCCN(c3ccc(C(C)CC)cc3)C2=N)cc1` (stereo unspecified), the IC50 in series [5] amounted to 0.39 µM; in series [3] it was 0.06 µM.

With `Nc1ncc(-c2cc(Cl)cc(Cl)c2Cl)c(N)n1`, the minimal effective dose in series [2] turned out to be 20 mg/kg. The compound also yielded an IC50 in [3] of 1.6 µM.

In the case of `Cc1cccc(C)c1N1C(=O)c2ccc(N)cc2C1=O`, the IC50 in [4] came to 0.11 µM.

As to `CCOc1ccccc1OCCN1CCC2(CC)c3cccc(O)c3CC1C2(C)C` (stereo unspecified), the minimal effective dose in series [2] was determined as 2 mg/kg.

In series [6], `CCC1(Cc2ccccc2)CCCNC1=O` (stereo unspecified) returned a half-maximal inhibitory concentration (IC50) of 487 µM.

Turning to `COC(=O)c1[nH]cc(-c2ccc(Br)cc2)c1N1CCOCC1`, the TD50 (commonly the dose at which the toxic effect under study appears in half of the subjects) in [7] is more than 500 mg/kg. For the same compound, in [1], the 50% effect level (ED50) was put at a dose of 2.5 mg/kg.

On to `CC(NCc1ccc(OCc2cccc(F)c2)cc1)C(N)=O` (stereo unspecified), for which, in series [1], the ED50 – broadly, the dose at which the effect has come halfway, by size or by number of responders – turned out to be 4.1 mg/kg.

In the case of `COc1ccc(/N=C(\N)Nc2ccc3c4c(cccc24)CC3)c2ccccc12`, the minimal effective dose in [8] turned out to be 30 mg/kg. For the same compound, the IC50 in series [3] is 1.64 µM.

In turn, `Cc1cccc(C)c1NC(=O)Nc1ccncc1` showed an IC50 in series [4] of 29 µM.

`NC1CCc2c(-c3ccccc3)[nH]c3cccc1c23` (stereo unspecified): the IC50 in series [4] worked out at 1.1 µM; in [3], 4.1 µM.

As for `Cc1cccc(C)c1NC(=O)/C=C1/SCC(=O)N1C`, the ED50 in series [1] turned out to be 2.8 mg/kg. For the same compound, in [4], the IC50 worked out at 25 µM.

For the compound `Nc1ncnnc1-c1cc(Cl)cc(Cl)c1Cl`, the TD50 in series [7] was 40 mg/kg. Also, the ED50 in [1] turned out to be 1.7 mg/kg.

For the compound `COC(=O)[C@@H]1C(=O)C=C(Nc2ccc(Cl)cc2)C[C@H]1C`, the TD50 in series [7] is 255 mg/kg. Further, in series [1], the ED50 stood at 26.2 mg/kg.

The compound `CN(C)CCOc1ccccc1-c1nc(-c2ccccc2)no1` came in with an ED50 in series [1] of 2.8 mg/kg.

Turning to `Nc1nccc2c1nnn2Cc1c(F)cccc1F`, in series [1], the 50% effect level (ED50) was put at a dose of 6.3 mg/kg.

With `Clc1ccc(-c2c[nH]nc2N2CCOCC2)cc1`, the median effective dose (ED50) in series [9] was 47 mg/kg.

Regarding `N=c1sc2ccccc2n1CCN1CCC(c2ccc(F)cc2)CC1`, in [2], the minimal effective dose is 16 mg/kg. In addition, the ED50 in series [1] was 3.9 mg/kg.

On to `Cc1ccc(-c2nc(C)c(CN3CCN(C(c4ccc(F)cc4)c4ccc(F)cc4)CC3)[nH]2)cc1`, for which the IC50 was 0.119 µM in [4] and 0.3 µM in [3].

In the case of `COc1ccc(CCN(C)CCCC(C#N)(c2ccc(OC)c(OC)c2)C(C)C)cc1OC` (stereo unspecified), the IC50 in [4] and in series [3] was 2.5 µM in each case.

As for `C[C@H](C(N)=O)N1CCC23CCCC[C@@H]2[C@@H]1Cc1ccc(OCc2cccc(F)c2)cc13` (single isomer, unassigned), in series [1], the 50% effective dose (ED50) worked out at 18.1 mg/kg.

In series [1], `Cc1cccc(C)c1NC(=O)c1ccc(N)cc1` [AMELTOLIDE] showed an ED50 of 13 mg/kg.

On to `CCCN(c1ccncc1)n1ccc2ccccc21` [BESIPIRDINE], for which the IC50 was determined as 5.5 µM in series [4] and 30 µM in series [3].

In series [7], `NC(=O)N1c2ccccc2C=Cc2ccccc21` [CARBAMAZEPINE] showed a TD50 of 27.4 mg/kg. Further, the minimal effective dose in series [2] was determined as 2 mg/kg. For the same compound, in series [1], the ED50 is 3.4 mg/kg. Further, the IC50 in series [4] stood at 131 µM; in [3], 30 µM.

For the compound `COc1ccccc1OCCNCC(O)COc1cccc2[nH]c3ccccc3c12` (stereo unspecified) [CARVEDILOL], the IC50 was determined as 1.7 µM in [4] and 0.306 µM in series [3].

Regarding `Nc1cnc(-c2cc(Cl)cc(Cl)c2Cl)c(N)n1` [ELPETRIGINE], in series [7], the TD50 came out at 18.8 mg/kg. This compound also came in with an ED50 in [1] of 1.13 mg/kg.

For `Cc1nc(OCCCCCN2CCCCC2)cc(-c2ccc(F)cc2)n1` [ENECADIN], the minimal effective dose in series [2] came to 0.5 mg/kg. Further, the figures for the IC50 in series [10] and in [3] were 1 µM and 7.7 µM, respectively.

As to `Fc1ccc(C(c2ccc(F)cc2)N2CCN(C/C=C/c3ccccc3)CC2)cc1` [FLUNARIZINE], the values for the IC50 in [4] and in series [3] were 0.35 µM and 0.12 µM, respectively.

As to `Nc1nnc(-c2cccc(Cl)c2Cl)c(N)n1` [LAMOTRIGINE], the TD50 in series [7] worked out at 84 mg/kg. Also, the minimal effective dose in series [2] stood at 20 mg/kg. In addition, the ED50 in series [1] was found to be 2.2 mg/kg. Also, the values for the IC50 in series [4] and in series [3] were 114 µM and 21 µM, respectively.

In [7], `CCN(CC)CC(=O)Nc1c(C)cccc1C` [LIDOCAINE] yielded a TD50 of 41 mg/kg. In series [1], this compound gave an ED50 of 87 mg/kg. The IC50 in series [4] was found to be 113 µM; in series [3], 97 µM.

With `COc1ccc(CN2CCN(C(c3ccc(F)cc3)c3ccc(F)cc3)CC2)c(OC)c1OC` [LOMERIZINE], the IC50 in series [4] was determined as 0.026 µM.

With `CN(c1nc2ccccc2s1)C1CCN(C[C@H](O)COc2ccc(F)c(F)c2)CC1` [LUBELUZOLE], the minimal effective dose in series [2] came to 0.3 mg/kg. The IC50 in [4] is 0.28 µM.

Compound `Cc1cccc(C)c1OCC(C)N` (stereo unspecified) [MEXILETINE] came in with an ED50 in series [1] of 2 mg/kg.

In the case of `O=C1NC(=O)C(c2ccccc2)(c2ccccc2)N1` [PHENYTOIN], in series [2], the minimal effective dose was 200 mg/kg. In addition, in series [11], the 50% effect level (ED50) was put at a dose of 10 mg/kg. Also, the IC50 in series [4] was 40 µM; in series [3], 21 µM.

Consider `CC(Cc1ccccc1)(NC(=O)CN)c1ccccc1` (stereo unspecified) [REMACEMIDE], for which the minimal effective dose in series [2] stood at 10 mg/kg; in series [12] it was 100 mg/kg.

Turning to `Nc1nc2ccc(OC(F)(F)F)cc2s1` [RILUZOLE], the minimal effective dose worked out at 4 mg/kg in series [2] and 30 mg/kg in series [13]. In [3], this compound had an IC50 of 4 µM.

With `CN1CCN(c2ncc(-c3cc(Cl)cc(Cl)c3Cl)c(N)n2)CC1` [SIPATRIGINE], the minimal effective dose in [14] worked out at 60 mg/kg; in series [2], 30 mg/kg. The same compound gave an IC50 in series [3] of 5.3 µM.

In turn, `CC1(C)O[C@@H]2[C@@H](CO[C@@]3(COS(N)(=O)=O)OC(C)(C)O[C@@H]23)O1` [TOPIRAMATE] showed an ED50 in series [1] of 39 mg/kg.

In the case of `NS(=O)(=O)Cc1noc2ccccc12` [ZONISAMIDE], in series [2], the minimal effective dose is 100 mg/kg.
